# Test results: ChEMBL document CHEMBL3632521, “A study of ad-proline peptidomimetic inhibitor of melanoma and endothelial cell invasion through activity towards MMP-2 and MMP-9” (Medchemcomm, 2015)
# Activity calls are given as the source filed them. The calls are words filed in the database; no cut-off is given here.
# Legend:
# [1] = biological target: T1, Matrix metalloproteinase-9 (Homo sapiens, UniProt P14780); assay: Inhibition MMP-9 (unknown origin) using Mca-Lys-Pro-Leu-Gly-Leu-Dpa-Ala-Arg-NH2 as substrate preincubated for 5 mins followed by substrate addition measured for 30 mins by fluorometric assay
# [2] = biological target: 72 kDa type IV collagenase (Homo sapiens, UniProt P08253); assay: Inhibition MMP-2 (unknown origin) using Mca-Lys-Pro-Leu-Gly-Leu-Dpa-Ala-Arg-NH2 as substrate preincubated for 5 mins followed by substrate addition measured for 30 mins by fluorometric assay
# [3] = Cytostatic activity in human A375P cells at 2.5 to 50 uM after 24 hrs by trypan blue based inverted-phase microscopic analysis; assay type: ADME, cell-based
# [4] = biological target: T1, Matrix metalloproteinase-9; assay: Inhibition of gelatinolytic activity of pro-MMP9 in human endothelial progenitor cells assessed as reduction in active form of protein at 20 uM by gelatin zymography
# EPC = assay: Antiinvasive activity in human endothelial progenitor cells at 20 uM after 24 hrs by matrigel assay; assay type: functional
# [5] = biological target: T1, Matrix metalloproteinase-9; assay: Inhibition of gelatinolytic activity of pro-MMP9 in human A375P cells assessed as reduction in active form of protein by gelatin zymography; assay type: cell-based
# [6] = Cytotoxic activity in human A375P cells at 2.5 to 50 uM after 24 hrs by trypan blue based inverted-phase microscopic analysis; assay type: cell-based
# Mus musculus = organism: Mus musculus; assay: Antiangiogenic activity in FVB mouse receiving 20 uM compound containing matrigel mixtures with heparin resuspended in EGM-2 medium assessed as reduction in capillary network formation after 5 days by microscopy based matrigel sponge assay; assay type: functional, organism-based
# [7] = Cytostatic activity in human A375P cells at 2.5 to 50 uM after 72 hrs by trypan blue based inverted-phase microscopic analysis; assay type: ADME, cell-based
# A375P = assay: Antiinvasive activity in human A375P cells assessed as reduction in tumor cell migration at 20 uM measured for 6 hrs by matrigel assay; assay type: functional, cell-based
# T1 sequence (P14780 whole entry): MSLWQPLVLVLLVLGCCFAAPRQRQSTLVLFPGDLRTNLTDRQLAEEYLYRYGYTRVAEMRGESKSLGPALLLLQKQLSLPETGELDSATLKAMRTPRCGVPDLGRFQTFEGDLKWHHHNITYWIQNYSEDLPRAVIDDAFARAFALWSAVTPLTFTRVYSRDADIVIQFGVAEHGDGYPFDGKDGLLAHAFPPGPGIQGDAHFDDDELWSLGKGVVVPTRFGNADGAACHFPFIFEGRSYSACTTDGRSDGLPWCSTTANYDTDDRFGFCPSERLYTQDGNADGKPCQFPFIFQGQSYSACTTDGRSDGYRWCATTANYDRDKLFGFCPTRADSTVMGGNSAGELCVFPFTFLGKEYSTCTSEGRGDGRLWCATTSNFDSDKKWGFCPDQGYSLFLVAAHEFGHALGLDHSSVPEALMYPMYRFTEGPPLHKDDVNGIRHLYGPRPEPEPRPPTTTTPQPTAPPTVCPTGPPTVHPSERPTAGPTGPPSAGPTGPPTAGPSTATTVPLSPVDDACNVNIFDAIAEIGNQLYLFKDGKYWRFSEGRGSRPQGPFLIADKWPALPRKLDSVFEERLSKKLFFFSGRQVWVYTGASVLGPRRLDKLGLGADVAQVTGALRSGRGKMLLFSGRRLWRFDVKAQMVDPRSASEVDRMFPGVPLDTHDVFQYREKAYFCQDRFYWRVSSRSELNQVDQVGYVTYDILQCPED
# Chain of 72 kDa type IV collagenase (P08253 whole entry): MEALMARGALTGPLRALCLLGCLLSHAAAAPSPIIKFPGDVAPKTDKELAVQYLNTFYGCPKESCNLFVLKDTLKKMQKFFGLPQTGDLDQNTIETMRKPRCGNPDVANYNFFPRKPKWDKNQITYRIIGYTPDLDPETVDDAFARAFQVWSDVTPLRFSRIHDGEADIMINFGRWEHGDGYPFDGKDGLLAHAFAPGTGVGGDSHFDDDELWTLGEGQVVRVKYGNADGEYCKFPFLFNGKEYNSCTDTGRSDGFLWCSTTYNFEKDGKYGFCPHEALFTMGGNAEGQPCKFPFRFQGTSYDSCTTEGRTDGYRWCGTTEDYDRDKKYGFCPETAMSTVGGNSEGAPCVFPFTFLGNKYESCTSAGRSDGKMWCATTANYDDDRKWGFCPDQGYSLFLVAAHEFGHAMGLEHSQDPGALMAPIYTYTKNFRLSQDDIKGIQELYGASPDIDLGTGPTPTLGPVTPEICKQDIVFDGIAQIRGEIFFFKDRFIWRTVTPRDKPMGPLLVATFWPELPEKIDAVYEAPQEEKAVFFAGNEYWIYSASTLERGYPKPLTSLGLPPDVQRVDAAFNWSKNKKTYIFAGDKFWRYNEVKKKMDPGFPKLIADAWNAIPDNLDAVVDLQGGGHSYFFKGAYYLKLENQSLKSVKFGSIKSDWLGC
Structure (SMILES),IC50 ([1]; read-out: IC50) [nM],IC50 ([2]; read-out: IC50) [nM],IC50 [2],further results
O=C(NO)[C@H]1C[C@H](n2cc(-c3ccccc3)nn2)CN1S(=O)(=O)c1ccc(Cl)c(Cl)c1,1200,–,–,–
O=C(NO)[C@H]1C[C@@H](OCc2ccccc2)CN1S(=O)(=O)c1ccc(Cl)c(Cl)c1,900,–,Not Active,–
O=C(N[C@H]1C[C@H](C(=O)NO)N(S(=O)(=O)c2ccc(Cl)c(Cl)c2)C1)c1cccs1,–,–,–,IC50 [1]: Not Active
COc1ccc(C(=O)N[C@H]2C[C@H](C(=O)NO)N(S(=O)(=O)c3ccc(Cl)c(Cl)c3)C2)c(OC)c1,1710,–,Not Active,–
O=C(NO)[C@H]1C[C@@H](NS(=O)(=O)c2ccc(-c3ccccc3)cc2)CN1S(=O)(=O)c1ccc(Cl)c(Cl)c1,590,–,Not Active,–

# Continued by falling IC50 ([1]; read-out: IC50), values first:
IC50 ([1]; read-out: IC50) [nM],IC50 ([2]; read-out: IC50) [nM],IC50 [2],Structure (SMILES),further results
560,450,–,COc1ccc(C(=O)N[C@@H]2C[C@H](C(=O)NO)N(S(=O)(=O)c3ccc(Cl)c(Cl)c3)C2)c(OC)c1,Activity [3]: Non-toxic; inhibition [4]: Active; Activity (EPC): Active; inhibition [5]: Dose-dependent effect; Activity [6]: Non-toxic; Activity (Mus musculus): Active; Activity [7]: Toxic; Activity (A375P): Active
360,–,–,O=C(/C=C/c1ccco1)N[C@H]1C[C@H](C(=O)NO)N(S(=O)(=O)c2ccc(Cl)c(Cl)c2)C1,–
100,144,–,O=C(N[C@@H]1C[C@H](C(=O)NO)N(S(=O)(=O)c2ccc(Cl)c(Cl)c2)C1)c1cccs1,–
60,360,–,O=C(NO)[C@H]1C[C@H](NS(=O)(=O)c2ccc(-c3ccccc3)cc2)CN1S(=O)(=O)c1ccc(Cl)c(Cl)c1,–
